According to patent publication US4120893A, “Anionic naphthalene thioureido toluenesulfonic acids” (American Cyanamid Company, priority 1977, dated 1978):
Where a name gives a salt, the structure may show the parent alone.

Columns and labels:
[1] = tested on: whole complement in serum; assay: Complement Level Reduction Test in dosed guinea pigs (capillary tube assay); type: in vivo; settings: guinea pig, intraperitoneal, 200 mg/kg
activated human C1 = assay: Test, Code 026 (C1 inhibitor); type: biochemical; settings: in vitro; two-fold serial dilution assay; higher well number indicates higher activity
Excerpt: (§1) An active inhibitor protects C2 from C1 and C4; (ii) Test, Code 035 (C3-C9 inhibitor)--This test determines the ability of the late components of human complement (C3-C9) to lyse EAC 142 in the presence of appropriate dilutions of the test compound. An active inhibitor protects EAC 142 from lysis by human C3-C9; (iii) Test, Code 036 (C-Shunt inhibitor)--In this test human erythrocytes rendered fragile are lysed in autologous serum via the shunt pathway activated by cobra venom factor in the presence of appropriate dilutions of the test compound. Inhibition of the shunt pathway results in failure of lysis; (iv) Forssman Vasculitis Test--Here, the well known complement dependent lesion, Forssman vasculitis, is produced in guinea pigs by intradermal injection of rabbit anti-Forssman antiserum. […]
(§2) With reference to Table I, guinea pigs weighing about 300 g were dosed intravenously (i.v.) or intraperitoneally (i.p.) with 200 mg/kg of the test compound dissolved in saline and adjusted to pH 7-8. […] Percent inhibition was calculated by comparison with simultaneous controls. […]

[2] = tested on: shunt pathway activated by cobra venom factor; assay: Test, Code 036 (C-Shunt inhibitor), lysis of human erythrocytes in autologous serum; type: cell-based; settings: in vitro; two-fold serial dilution assay; higher well number indicates higher activity
Excerpt: as §1, §2

[3] = tested on: late components of human complement (C3-C9); assay: Test, Code 035 (C3-C9 inhibitor), lysis of EAC 142; type: cell-based; settings: in vitro; two-fold serial dilution assay; higher well number indicates higher activity
Excerpt: as §1, §2

[4] = tested on: hereditary angioneurotic edema; settings: The New England Journal of Medicine, 286, 808-812 (1972); cited from earlier work
complement system = settings: reported in cited literature; cited from earlier work

| Compound | use in treatment of hereditary angioneurotic edema [4] | anticomplementary effect / inhibition of the complement system (complement system) | further results |
| --- | --- | --- | --- |
| Cc1c(NC(=S)Nc2cc(S(=O)(=O)[O-])cc3cc(S(=O)(=O)[O-])cc(S(=O)(=O)[O-])c23)cc(S(=O)(=O)[O-])cc1NC(=S)Nc1cc(S(=O)(=O)[O-])cc2cc(S(=O)(=O)[O-])cc(S(=O)(=O)[O-])c12.[Na+].[Na+].[Na+].[Na+].[Na+].[Na+].[Na+] [8,8'-[(2-methyl-5-sulfo-1,3-phenylene)bis(2-thioureylene)]di-1,3,6-naphthalenetrisulfonic acid heptasodium salt] |  |  | % change in serum complement level ([1]; 30 minutes): -40%; % change in serum complement level ([1]; 60 minutes): -40%; % change in serum complement level ([1]; 120 minutes): -51%; C1 026* Wells (activated human C1): +7 Wells; Shunt Inhibition 036* Wells [2]: N; C-Late 035* Wells [3]: N |
| Cc1ccc(C(=O)Nc2ccc(S(=O)(=O)O)c3cc(S(=O)(=O)O)cc(S(=O)(=O)O)c23)cc1NC(=O)c1cccc(NC(=O)Nc2cccc(C(=O)Nc3cc(C(=O)Nc4ccc(S(=O)(=O)O)c5cc(S(=O)(=O)O)cc(S(=O)(=O)O)c45)ccc3C)c2)c1 [Suramin] | used with success | competitive inhibitor of the complement system |  |
| Nc1ccc2cc(S(=O)(=O)O)cc(O)c2c1N=Nc1ccc(NC(=O)Nc2ccc(N=Nc3c(N)ccc4cc(S(=O)(=O)O)cc(O)c34)c(S(=O)(=O)O)c2)cc1S(=O)(=O)O [chlorazol fast pink, 3,3'-ureylenebis-[6-(2-amino-8-hydroxy-6-sulfo-1-naphthylazo)]benzenesulfonic acid, tetrasodium salt] |  | anticomplementary effect |  |
| NCCCCCC(=O)O [epsilon-aminocaproic acid] | used with success |  |  |
| NC[C@H]1CC[C@H](C(=O)O)CC1 [tranexamic acid] | used with success |  |  |
| heparin |  | anticomplementary effect |  |
